Assay results as given in patent US20230190866A1, “PEPTIDE FOR THE TREATMENT OF CYTOKINE STORM SYNDROME” (priority 2020, published 2023).
Ends that are not written are not given here.

Experiments:
[1] = system: acute respiratory distress syndrome in patients with Covid-19; conditions: ten treated Covid-19 patients
[2] = patients, pharmaceutical composition
Excerpt: The peptide identified as SEQ ID NO: 1 is obtained by chemical synthesis. Through experiments such as those described in the present invention, those immunological mechanisms induced by the peptide that contribute in the control of hyperinflammation can be evaluated.

With “SIDLKDKYKNIGAKLVQLVANNTNEEA [peptide identified as SEQ ID NO: 1]” the symptoms of immunosuppression [1] was “did not present any symptoms of immunosuppression”, the serious adverse events [2] was “No serious adverse events were identified” and the tolerability [2] was “well tolerated”.
